According to article PMC8344252, “Carbonic anhydrase activation profile of indole-based derivatives” (Journal of Enzyme Inhibition and Medicinal Chemistry, 2021):

Experiments:
[1] = molecular target: hCA I (Homo sapiens, UniProt P00915); test: CA activation, stopped-flow CO2 hydrase assay; assay type: biochemical; settings: activation constant; mean from 3 assays, errors ±5–10%
Method: (§1) A stopped-flow method[38] has been used for assaying the CA catalysed CO2 hydration activity with Phenol red as indicator, working at the absorbance maximum of 557 nm, following the initial rates of the CA-catalysed CO2 hydration reaction for 10–100 s. For each activator, at least six traces of the initial 5–10% of the reaction have been used for determining the initial velocity. The uncatalyzed rates were determined in the same manner and subtracted from the total observed rates. Stock solutions of activator (0.1 mM) were prepared in distilled-deionized water and dilutions up to 0.1 nM were done thereafter with the assay buffer. The activation constant (KA), defined similarly with the inhibition constant (KI), was obtained by considering the classical Michaelis–Menten equation (Equation (3), which has been fitted by nonlinear least squares by using PRISM 3: v=vmax/{1+KM/[S](1+[A]f/KA)} (3) [drawing 4] where [A]f is the free concentration of activator.
(§2) Working at substrate concentrations considerably lower than KM ([S]≪KM), and considering that [A]f can be represented in the form of the total concentration of the enzyme ([E]t) and activator ([A]t), the obtained competitive steady-state equation for determining the activation constant is given by Equation 4: v=v0KA/{KA+[A]t–0.5{([A]t+[E]t+ KA)–([A]t+[E]t+ KA)^2–4[A]t[E]t^1/2}} (4) [drawing 5] where v0 represents the initial velocity of the enzyme-catalysed reaction in the absence of an activator[39–42]. Enzyme concentrations in the assay system were in the range of 6.5–12.0 nM.

[2] = molecular target: hCA II (Homo sapiens, UniProt P00918); test: CA activation, stopped-flow CO2 hydrase assay; assay type: biochemical; settings: for KA ratio [hCA II/hCA VII]: KA ratio for the indicated enzyme isoforms, value in square brackets; for KA hCA II: activation constant, mean from 3 assays, errors ±5–10%
Method: as §1, §2

[3] = molecular target: hCA VA (Homo sapiens, UniProt P35218); test: CA activation, stopped-flow CO2 hydrase assay; assay type: biochemical; settings: for KA ratio [hCA VA/hCA VII]: KA ratio for the indicated enzyme isoforms, value in square brackets; for KA hCA VA: activation constant, mean from 3 assays, errors ±5–10%; for hCA VA activation, judged in words: text comment on KA values
Method: as §1, §2

[4] = molecular target: hCA VII (Homo sapiens, UniProt P43166); test: CA activation, stopped-flow CO2 hydrase assay; assay type: biochemical; settings: activation constant; mean from 3 assays, errors ±5–10%
Method: as §1, §2

[5] = tested on: C20 human microglial cell line; test: Cell viability (MTS) assay; assay type: cell-based; settings: 24 h; for Cell viability of C20 cells: highest tested concentration (10 µM), vs vehicle (DMSO) control
Method: (§3) All materials for cell culturing were obtained by Corning, New York, USA, and all used reagents were purchased by Sigma-Aldrich (Saint Louis, MO, USA). The human microglial cell line C20, originally generated by David Alvarez-Carbonell et al.[52], was grown in DMEM-F12 medium supplemented with 10% of FBS, 100 U/mL penicillin, 0.1 mg/mL streptomycin, and neomycin (600 μg/mL), as a selector of the immortalised telomerase-expressing cells. Cells were kept at 37 °C under a humidified atmosphere with […] and 5% CO2. Viable cells (identified by counting trypan-blue-excluding cellular elements) were plated at a density of 100,000 cells each well in a 24-well plate. To evaluate the ability of target compounds to modulate the cellular viability and brain-derived neurotrophic factor (BDNF) release, C20 cells were challenged with CAAs.
C20 cells were seeded in 96-well microplates at a density of 5000 cells/well and maintained in complete culture media. The day after the seed, cells were treated with CAAs 7, 8, and 9 for 24 h (1 and 10 µM). The cell viability was determined using the [3–(4,5-dimethylthiazol-2-yl)-5–(3-carboxymethoxyphenol)-2–(4-sulfophenyl)-2H-tetrazolium, inner salt] (MTS) assay according to the manufacturer’s instructions (Promega, Milano, Italy). This tetrazolium dye can be reduced by the metabolic reducing agents NADH and NADPH to a water-soluble formazan salt. The amount of formazan produced is considered to be a marker of cell viability. The MTS reagent was added to treated C20 cells and the colorimetric conversion of formazane was quantified after 1 h by measuring the absorbance at 490 nm (EnSightTM multimode plate reader, equipped with Kaleido Data Acquisition and Analysis Software).

[6] = tested on: BDNF release from C20 human microglial cells; test: BDNF enzyme-linked immunosorbent assay on conditioned medium; assay type: cell-based; settings: 10 µM, 2 h treatment, medium collected after 24 h, ELISA, normalised on crystal violet
Method: as §3, with “To evaluate the ability of target compounds to modulate the cellular viability and brain-derived neurotrophic factor (BDNF) release, C20 cells were challenged with CAAs.” left out
C20 cells were seeded in 24-well microplates at a density of 100,000 cells/well and maintained in complete culture media. […] At the end of the 24 h, the levels of BDNF were measured in the C20 conditioned medium using an enzyme-linked immunosorbent assay (ELISA) Kit (SEA011Mi 96 Tests, Cloude-Clone Corp., CCC, USA), accordingly to manufacture instructions. […] The enzyme-substrate reaction was terminated by the addition of sulphuric acid solution and the colour change was measured spectrophotometrically at a wavelength of 450 nm ± 10 nm. The concentration of BDNF in the samples was then determined by comparing the O.D. of the samples to the standard curve. […]

Sequence of hCA VA (P35218 39-305): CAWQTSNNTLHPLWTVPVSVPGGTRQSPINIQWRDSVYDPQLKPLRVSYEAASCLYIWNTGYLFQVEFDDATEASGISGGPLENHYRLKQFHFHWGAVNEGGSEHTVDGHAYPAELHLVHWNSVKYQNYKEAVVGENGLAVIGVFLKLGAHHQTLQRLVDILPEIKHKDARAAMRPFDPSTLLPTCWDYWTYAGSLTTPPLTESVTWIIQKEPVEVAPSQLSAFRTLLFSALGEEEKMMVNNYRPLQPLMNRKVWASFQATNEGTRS
Sequence of hCA I (P00915 whole entry): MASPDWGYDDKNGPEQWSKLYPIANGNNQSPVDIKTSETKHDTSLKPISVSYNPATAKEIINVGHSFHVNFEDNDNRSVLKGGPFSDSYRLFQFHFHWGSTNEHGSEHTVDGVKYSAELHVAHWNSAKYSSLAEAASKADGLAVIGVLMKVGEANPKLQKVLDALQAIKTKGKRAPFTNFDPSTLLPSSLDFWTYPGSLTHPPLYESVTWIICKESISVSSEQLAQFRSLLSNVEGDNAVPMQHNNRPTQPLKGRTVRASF
Sequence of hCA VII (P43166 whole entry): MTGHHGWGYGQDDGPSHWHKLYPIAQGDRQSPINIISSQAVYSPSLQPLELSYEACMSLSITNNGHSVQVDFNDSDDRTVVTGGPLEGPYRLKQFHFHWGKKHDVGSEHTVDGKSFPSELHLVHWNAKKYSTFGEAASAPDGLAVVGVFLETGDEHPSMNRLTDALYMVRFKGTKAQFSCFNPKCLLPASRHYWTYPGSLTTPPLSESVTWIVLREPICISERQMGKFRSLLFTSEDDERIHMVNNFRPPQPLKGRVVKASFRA

SMILES	KA hCA I [1]	KA ratio [hCA II/hCA VII] [2]	KA hCA II [2]	KA ratio [hCA VA/hCA VII] [3]	KA hCA VA [3]	KA hCA VII [4]	hCA VA activation, judged in words [3]	Cell viability of C20 cells [5]	melting point	Cytotoxic activity on C20 cells ([5]; 1 and 10 µM, any of the tested concentrations)	BDNF levels in medium of C20 cells [6]
CN(C)CCCOc1ccc2c(c1)c(C(=O)NCCO)cn2Cc1ccccc1 [Compound 5, 5-(3-(Dimethylamino)propoxy)-1-benzyl-N-(2-hydroxyethyl)-1H-indole-3-carboxamide]	> 100 µM	> 9.6	> 100 µM	2.7	28.0 µM	10.4 µM					
CCOC(=O)c1cn(Cc2ccccc2)c2ccc(OCCCN(C)C)cc12 [Compound 8, Ethyl 5-(3-(dimethylamino)propoxy)-1-benzyl-1H-indole-3-carboxylate]	69.1 µM	> 13.9	> 100 µM	8.3	59.8 µM	7.2 µM	poor activity	slight, although not statistically significant, reduction in cell viability	58 to 60 °C		
CCN(CC)CCOc1ccc2c(c1)c(C(=O)NCc1ccccc1)cn2Cc1ccccc1 [Compound 7, 5-(2-(Diethylamino)ethoxy)-N,1-dibenzyl-1H-indole-3-carboxamide]	> 100 µM	> 13.3	> 100 µM	3.2	24.4 µM	7.5 µM		a little increase in cell viability	57 to 59 °C	did not exhibit cytotoxic activity	significant increase in BDNF levels
CN(C)CCCOc1ccc2c(c1)c(C(=O)C(=O)NCCCO)cn2Cc1ccccc1 [Compound 3, 2-(5-(3-(Dimethylamino)propoxy)-1-benzyl-1H-indol-3-yl)-N-(3-hydroxypropyl)glyoxamide]	> 100 µM	> 9.4	> 100 µM	4.8	50.9 µM	10.6 µM	poor activity		111 to 113 °C		
CCOC(=O)c1cn(Cc2ccccc2)c2ccc(OCCN(C)C)cc12 [Compound 9, Ethyl 5-(2-(dimethylamino)ethoxy)-1-benzyl-1H-indole-3-carboxylate]	> 100 µM	> 12.2	> 100 µM	3.5	29.1 µM	8.2 µM		slight, although not statistically significant, reduction in cell viability	69 to 71 °C		
CCN(CC)CCNC(=O)C(=O)c1cn(Cc2ccccc2)c2ccc(OCCO)cc12 [Compound 2, 2-(5-(2-Hydroxyethoxy)-1-benzyl-1H-indol-3-yl)-N-(2-(diethylamino)ethyl)glyoxylamide]	88.9 µM	> 10.0	> 100 µM	2.9	28.7 µM	10.0 µM					
CN(C)CCOc1ccc2c(c1)c(C(=O)NCCO)cn2Cc1ccccc1 [Compound 6, 5-(2-(Dimethylamino)ethoxy)-1-benzyl-N-(2-hydroxyethyl)-1H-indole-3-carboxamide]	> 100 µM	> 9.3	> 100 µM	2.5	26.8 µM	10.7 µM					
CCN(CC)CCOc1ccc2c(c1)c(C(=O)C(=O)NCCO)cn2Cc1ccccc1 [Compound 4, 2-(5-(2-(Diethylamino)ethoxy)-1-benzyl-1H-indol-3-yl)-N-(2-hydroxyethyl)glyoxamide]	> 100 µM	> 11.0	> 100 µM	3.8	34.4 µM	9.1 µM			116 to 118 °C		
CN(C)CCCNC(=O)C(=O)c1cn(Cc2ccccc2)c2ccc(OCCO)cc12 [Compound 1, 2-(5-(2-Hydroxyethoxy)-1-benzyl-1H-indol-3-yl)-N-(3-(dimethylamino)propyl)glyoxylamide]	> 100 µM	> 9.3	> 100 µM	2.3	25.0 µM	10.8 µM					
NCCc1c[nH]cn1 [Histamine, reference compound]	2.1 µM		125 µM		0.010 µM	37.5 µM					
